Patent US4963570A, “1-(acetylaminophenyl)-2-aminopropanone derivatives and pharmaceutical compositions thereof” (Laboratoire L. Lafon, priority 1983, dated 1990)
Where a name gives a salt, the structure may show the parent alone.

What was measured:
[1] = acute toxicity, intraperitoneal (lethal doses); type: in vivo, mouse; details: mouse, in vivo, ip; male mice
Protocol: (§1) By intraperitoneal administration to male mice, the LD-30 (lethal dose for 30% of the animals tested) is of the order of 128 mg/kg and the LD-50 is of the order of about 200 mg/kg.

male mice = test: acute toxicity, intraperitoneal (lethal doses); type: in vivo, mouse; details: i.p.
Protocol: as §1

mice [2] = test: overall behavior and reactivities in mice; type: in vivo, mouse; details: mice, i.p.; dose not stated
Protocol: (§2) Groups of three animals are observed before and then 0.25 hour, 0.50 hour, 1 hour, 2 hours, 3 hours and 24 hours after the administration of CRL 41 224.

rats [3] = test: overall behavior and reactivities in rats; type: in vivo, rat; details: i.p., dose not stated
Protocol: as §2

mice [4] = test: interaction with apomorphine in mice; type: in vivo, mouse; details: i.p.; dose not stated
Protocol: Groups of 6 mice receive CRL 41 224 0.5 hour before the subcutaneous injection of 1 or 16 mg/kg of apomorphine.

rats [5] = test: interaction with apomorphine in rats; type: in vivo, rat; details: i.p., dose not stated
Protocol: CRL 41 224 is administered to groups of 6 rats 0.5 hour before the subcutaneous injection of 0.5 mg/kg of apomorphine.

rats [6] = test: interaction with amphetamine; type: in vivo, rat; details: rats, i.p.; dose not stated
Protocol: Amphetamine (2 mg/kg) is injected intraperitoneally into groups of 6 rats 30 minutes after the administration of CRL 41 224.

mice [7] = test: interaction with reserpine; type: in vivo, mouse; details: i.p.; dose not stated
Protocol: Four hours after the intraperitoneal injection of 2.5 mg/kg of reserpine, groups of 6 mice receive CRL 41 224.

mice [8] = test: interaction with oxotremorine; type: in vivo, mouse; details: i.p.; dose not stated
Protocol: CRL 41 224 is administered to groups of 6 mice 0.5 hour before the intraperitoneal injection of 0.5 mg/kg of oxotremorine.

mice [9] = test: four plate test, traction and electric shock; type: in vivo, mouse; details: i.p., dose not stated
Protocol: The test is performed on groups of 10 mice 30 minutes after the administration of CRL 41 224.

mice [10] = test: action on the spontaneous motility (actimeter); type: in vivo, mouse; details: mice, i.p.; dose not stated
Protocol: 0.5 hour after they have received CRL 41 224, the mice (6 per dose, 12 control animals) are placed in an actimeter, where their motility is recorded for 30 minutes.

mice [11] = test: motility reduced by habituation to the enclosure; type: in vivo, mouse; details: i.p., dose not stated
Protocol: After they have stayed in the actimeters for 18 hours, the mice (6 per dose, 12 control animals) receive CRL 41 224. They are immediately returned to their respective enclosures and, half an hour later, their motility is recorded for 30 minutes.

mice [12] = test: motility reduced by hypoxic aggression; type: in vivo, mouse; details: i.p., dose not stated
Protocol: Half an hour after they have received CRL 41 224, the mice (10 per dose, 20 control animals) are subjected to acute hypobaric anoxia [pressure reduction of 600 mm Hg (i.e. about 8×10^4 Pa) in 90 seconds; release of vacuum in 45 seconds] and are then placed in an actimeter, where their motility is recorded for 10 minutes.

mice [13] = test: asphyxiant anoxia (gallamine triiodoethylate); type: in vivo, mouse; details: i.p.; dose not stated
Protocol: Groups of 10 mice receive CRL 41 224 half an hour before the intraperitoneal administration of 32 mg/kg of gallamine triiodoethylate (reference curarizing agent).

mice [14] = test: interaction with barbital; type: in vivo, mouse; details: i.p.; dose not stated
Protocol: Half an hour after the administration of CRL 41 224, groups of 10 mice receive an intraperitoneal injection of barbital (220 mg/kg).

mice [15] = test: action on the behavioral despair; type: in vivo, mouse; details: i.p., dose not stated
From the text: Half an hour after they have received CRL 41 224, groups of 6 mice are placed in a beaker filled with water to a height of 6 cm. The total period of immobility between the 2nd and 6th minutes following immersion is noted.

CNS = test: overall neuropsychopharmacological (CNS) profile; type: in vivo, mouse; rat; details: i.p., mice and rats; dose not stated
Protocol: The neuropsychopharmacological study of CRL 41 219 was carried out as indicated above for CRL 41 224.
The neuropsychopharmacological study of CRL 41 220 was carried out in accordance with the procedures given above for CRL 41 224.

[16] = test system: peripheral α-adrenergic stimulation; test: signs of peripheral adrenergic stimulation; type: in vivo, mouse; rat; details: i.p.; dose not stated
Protocol: as §2

dogs = test: cardiovascular action in anesthetized dogs; type: in vivo, dog
Protocol: Four dogs (average weight: 13.8 kg), anesthetized with nembutal, receive CRL 41 220 by intraduodenal administration at successive doses of 0.1 mg/kg, 0.5 mg/kg, 1 mg/kg, 2.5 mg/kg, 5 mg/kg and 10 mg/kg. The blood pressure, the heart beat, the flow rate through the femoral artery, the flow rate through the vertebral artery and the rectal and/or skin temperature are measured and the coloration of the skin and the bile (collected by catheterization of the bile duct after ligature of the cystic duct) is observed.

[17] = test system: spleen cells expressing a direct IgM antibody response; test: test for cells forming lysis areas (PFC IgM, Cunningham); type: in vivo, mouse; details: dose not stated
Protocol: Immunological assays were carried out in order to point out the interest of CRL 41 240 as an immunomodulating agent. Specifically, the test used was the so-called test for cells forming lysis areas, described by A. J. […] et al. ("Further improvements in the plaque technique for detecting simple antibody forming cells"), Immunology 14, pages 599-601 (1968).
The test for cells forming lysis areas (or PFC IgM) explores the humoral immunity. Four days after immunization with a T-dependent antigen (in this case red blood corpuscles of sheep), the spleen cells expressing a direct IgM antibody response are counted. The mice used for this purpose are conventional female OF1 mice devoid of specific pathogenic organisms, weighing from 20 to 30 g and divided up into a control group of 14 animals and groups each containing 7 animals per dose and per product to be studied, administered orally on the same day as the antigen. An activity index I is calculated for each dose of product according to the following equation: [formula]
This test is performed at least twice for each dose of test product [C(control amimals), 0.01, 0.1, 10 and 100 mg/kg] and a statistical study is undertaken using the Student t test after variance analysis on the number of lyses per spleen.

[18] = test system: delayed hypersensitivity to the red blood corpuscles of sheep; test: delayed hypersensitivity to the red blood corpuscles of sheep (Miller); type: in vivo; details: dose not stated
LEWIS' carcinoma = LEWIS' carcinoma in mice; type: in vivo, mouse
Protocol: a. animals: consanguineous female mice (C57 BL6), b. infecting cells: 10^5 cells injected subcutaneously into the back of the animals, c. monitoring of the tumor growth by measurement of the tumor twice a week, d. evaluation of the pulmonary metastases after fixation of the lungs of the dead animals in BOUIN's fixative.
Using the same procedures, the association of CRL 41 220 with 150 mg/kg of cyclophosphamide gives the results collated in Table II below.

man = test: clinical trials; type: in vivo, human; details: man, oral, 250 to 500 mg
immunological properties = test: immunological properties, overall; type: in vivo; details: dose not stated
From the text: The present 1-(acetylaminophenyl)-2-aminopropanone derivatives are useful in therapy. They all act on the CNS, more precisely as antidepressants. They have a stimulant or excitant component in their neuropsychopharmacological profile.

[19] = dogs, after accumulated 19.1 mg/kg intraduodenal
[20] = dogs, after intraduodenal CRL 41 220
[21] = CRL 41 220 2 mg/kg + cyclophosphamide 150 mg/kg

SMILES: CC(=O)Nc1ccc(C(=O)C(C)N2CCCC2)cc1Cl (stereo not shown) [CRL 41 219, 1-(4-acetylamino-3-chlorophenyl)-2-pyrrolidinopropanone hydrochloride]
- LD50 [1]: ~200 mg/kg
- LD-30 (male mice): ~128 mg/kg
- excitation in mice (mice [2]): excitation with hyperreactivity
- stereotype movements in mice (mice [2]): late appearance of stereotypies
- excitation in rats (rats [3]): excitation (with hyperractivity)
- stereotype movements in rats (rats [3]): presence of stereotype movements
- hypothermia induced by apomorphine (mice [4]): antagonism of the hypothermia induced by apomorphine
- stereotypies induced by apomorphine (rats [5]): potentiation of the stereotypies induced by apomorphine
- stereotypies induced by amphetamine (rats [6]): potentiation of the stereotypies induced by apomorphine and amphetamine
- hypothermia induced by reserpine (mice [7]): antagonism of the hypothermia induced by apomorphine, reserpine
- ptosis induced by reserpine (mice [7]): antagonism of the ptosis induced by reserpine
- hypothermia induced by oxotremorine (mice [8]): antagonism of the hypothermia induced by apomorphine, reserpine and oxotremorine
- trembling caused by oxotremorine (mice [8]): antagonism of the trembling caused by oxotremorine
- lethal effects of electric shock (mice [9]): aggravation of the lethal effects of electric shock
- number of punished passes in the 4 plate test (mice [9]; mice): increase in the number of punished passes
- spontaneous motility / motor activity (mice [10]): hyperactivity, increase in the spontaneous motor activity
- motor activity after habituation to the enclosure (mice [11]): resumption in the motor activity after habituation to the enclosure
- motor recovery after hypoxic aggression (mice [12]): improvement in the motor recovery after hypoxic aggression
- time taken for convulsions and death to occur following asphyxiant anoxia (mice [13]): reduction in the time taken for convulsions and death to occur following asphyxiant anoxia
- sleep induced by barbital (mice [14]): antagonism of the sleep induced by barbital
- period of immobility or "despair" (mice [15]): reduction in the immobility
- overall action on the CNS (CNS): antidepressant, stimulant and arousing properties
- mydriasis [16]: mydriasis
- peripheral adrenergic stimulation, overall [16]: effects reflecting peripheral α-adrenergic stimulation

SMILES: CC(=O)Nc1c(Cl)cc(C(=O)C(C)NC(C)C)cc1Cl (stereo not shown) [CRL 41 220, 1-(4-acetylamino-3,5-dichlorophenyl)-2-isopropylaminopropanone hydrochloride]
- LD50 [1]: ~500 mg/kg
- LD-0 (maximum non-lethal dose) (male mice): greater than 128 mg/kg
- LD-30 (male mice): about 250 mg/kg
- respiratory stimulation (dogs; 4 dogs, intraduodenal): induces respiratory stimulation in the 4 dogs
- diastolic blood pressure before isoprenaline (dogs; [19]): 112 mm Hg
- diastolic blood pressure with 10 μg/kg of isoprenaline (dogs; [19]): 47 mm Hg
- effect of isoprenaline on the diastolic blood pressure after CRL 41 220 (dogs; [19]): very slightly modified as regards the diastolic blood pressure
- effect of isoprenaline on the heart beat after CRL 41 220 (dogs; [19]): not modified as regards the heart beat
- heart beat before isoprenaline (dogs; [19]): 221 beats/minute
- heart beat with 10 μg/kg of isoprenaline (dogs; [19]): 275 beats/minute
- effect of 1 mg/kg of propanolol at the end of the test (dogs; [20]): suppresses all the effects of CRL 41 220
- systolic blood pressure before noradrenaline (dogs; [20]): 202 mm Hg
- systolic blood pressure with 2 μg/kg of noradrenaline (dogs; [20]): 272 mm Hg
- hypertension induced by noradrenaline (dogs; dogs, after intraduodenal CRL 41 220, noradrenaline 2 μg/kg): hypertension induced by noradrenaline is reduced
- overall cardiovascular action (dogs; dogs, intraduodenal): acts as a hypotensive agent
- rectal and skin temperatures (dogs; dogs, intraduodenal): increases the rectal and skin temperatures
- femoral flow rate (dogs; dogs, intraduodenal, 1 mg/kg): increases the vertebral flow rate as from a dose of 0.5 mg/kg, the femoral flow rate
- heart beat (dogs; dogs, intraduodenal, 2.5 mg/kg): increases the vertebral flow rate as from a dose of 0.5 mg/kg, the femoral flow rate at a dose of 1 mg/kg and the heart beat
- hypotensive effect (dogs; dogs, intraduodenal, 10 mg/kg): hypotensive effect
- vertebral flow rate (dogs; dogs, intraduodenal, as from 0.5 mg/kg): increases the vertebral flow rate
- immunomodulating activity, test for cells forming lysis areas [17]: immunomodulating stimulant capacity
- immunomodulating activity, delayed hypersensitivity [18]: immunomodulating stimulant capacity
- animals treated still being alive several weeks after the experiment (LEWIS' carcinoma; [21]): all
- protective action in respect of LEWIS' carcinoma (LEWIS' carcinoma; [21]): unquestionable protective
- differences compared with cyclophosphamide used by itself (LEWIS' carcinoma; CRL 41 220 5 mg/kg + cyclophosphamide 150 mg/kg): substantially few
- toxicity of the association compared with cyclophosphamide used by itself (LEWIS' carcinoma; CRL 41 220 100 mg/kg + cyclophosphamide 150 mg/kg): increase in the toxicity
- activity in LEWIS' carcinoma, used by itself (LEWIS' carcinoma; female C57 BL6 mice, alone): inactive
- activity in the study of LEWIS' carcinoma, overall statement (LEWIS' carcinoma; mice): active
- clinical result: circulatory disorders and insufficient immunoreaction (recurrent herpes, rheumatoid polyarthritis, severe measles) (man): good results
- overall action on the CNS (CNS): antidepressant and stimulant effects
- immunological properties, overall (immunological properties): beneficial immunomodulating effects
